Results published in ChEMBL document CHEMBL1201862, “PubChem BioAssay data set” (2004).
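Step 1: Grow cells in 96-well plates. Step 2: Expose to compound for 48 hours at 5 concentrations. Step 3: Interpolate endpoints linearly; if unreached, use highest concentration. GI50 is the concentration that inhibits growth by half.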 Activity calls are given as the source filed them. Rule as the data show it: active = GI50 up to about 1.1 µM and inactive = higher.

Columns and labels:
Test in all cases: growth of human tumour cells (NCI), 48 h
OVCAR-4 = test system: OVCAR-4
A549 = test system: A549
MDA-MB-231 = test system: MDA-MB-231
SK-MEL-5 = test system: SK-MEL-5
HCT-116 = test system: HCT-116
SK-MEL-2 = test system: SK-MEL-2
PC-3 = test system: PC-3
EKVX = test system: EKVX
MOLT-4 = test system: MOLT-4
NCI/ADR-RES = test system: NCI/ADR-RES
NCI-H226 = test system: NCI-H226
SK-MEL-28 = test system: SK-MEL-28
K562 = test system: K562
CCRF-CEM = test system: CCRF-CEM
DU-145 = test system: DU-145
COLO 205 = test system: COLO 205
LOX IMVI = test system: LOX IMVI
SF-295 = test system: SF-295
A498 = test system: A498
OVCAR-3 = test system: OVCAR-3
RXF 393 = test system: RXF 393
NCI-H460 = test system: NCI-H460
UACC-62 = test system: UACC-62
HOP-62 = test system: HOP-62
HCC 2998 = test system: HCC 2998
OVCAR-8 = test system: OVCAR-8
SF-268 = test system: SF-268
SNB-75 = test system: SNB-75
SN12C = test system: SN12C
SF-539 = test system: SF-539
NCI-H23 = test system: NCI-H23
UACC-257 = test system: UACC-257
OVCAR-5 = test system: OVCAR-5
M14 = test system: M14
KM12 = test system: KM12
ACHN = test system: ACHN
HCT-15 = test system: HCT-15
T47D = test system: T47D
MDA-N = test system: MDA-N
NCI-H522 = test system: NCI-H522

For O=C1Oc2ccccc2C(=O)/C1=C/NC(=S)Nc1ccccc1, the GI50 (OVCAR-4) was 39.6 µM (inactive), the GI50 (A549) was 48.8 µM (inactive) and the GI50 (MDA-MB-231) was 29 µM (inactive). For the same compound, the GI50 (SK-MEL-5) was 42.5 µM (inactive), the GI50 (HCT-116) was 34.8 µM (inactive) and the GI50 (SK-MEL-2) was 15.1 µM (inactive). For the same compound, the GI50 (PC-3) was 55.6 µM (inactive), the GI50 (EKVX) was 56.5 µM (inactive) and the GI50 (MOLT-4) was 31.8 µM (inactive). The GI50 (NCI/ADR-RES) was 38.5 µM (inactive), the GI50 (NCI-H226) was 65.9 µM (inactive) and the GI50 (SK-MEL-28) was 44.2 µM (inactive). For the same compound, the GI50 (K562) was 56.4 µM (inactive), the GI50 (CCRF-CEM) was 28.5 µM (inactive) and the GI50 (DU-145) was 46.1 µM (inactive). For the same compound, the GI50 (COLO 205) was 44.7 µM (inactive), the GI50 (LOX IMVI) was 51.1 µM (inactive) and the GI50 (SF-295) was 52.2 µM (inactive). The GI50 (A498) was 24.6 µM (inactive), the GI50 (OVCAR-3) was 25.4 µM (inactive) and the GI50 (RXF 393) was 0.119 µM (active). For the same compound, the GI50 (NCI-H460) was 32.1 µM (inactive), the GI50 (UACC-62) was 0.834 µM (active) and the GI50 (HOP-62) was 33.6 µM (inactive). The GI50 (HCC 2998) was 40 µM (inactive), the GI50 (OVCAR-8) was 44.3 µM (inactive) and the GI50 (SF-268) was 22.3 µM (inactive). The GI50 (SNB-75) was 20.4 µM (inactive), the GI50 (SN12C) was 40.1 µM (inactive) and the GI50 (SF-539) was 28.7 µM (inactive). For the same compound, the GI50 (NCI-H23) was 61.4 µM (inactive), the GI50 (UACC-257) was 77.6 µM (inactive) and the GI50 (OVCAR-5) was 80.4 µM (inactive). For the same compound, the GI50 (M14) was 27 µM (inactive), the GI50 (KM12) was 49.4 µM (inactive) and the GI50 (ACHN) was 23.6 µM (inactive). For the same compound, the GI50 (HCT-15) was 28.3 µM, the GI50 (T47D) was 5.96 µM (inactive) and the GI50 (MDA-N) was 37.8 µM (inactive). The GI50 (NCI-H522) was 30.1 µM (inactive).
